Reference: paper PMC2375871, “Regulation of 5'-adenosine monophosphate deaminase in the freeze tolerant wood frog, Rana sylvatica” (BMC Biochemistry, 2008)

Assays:
Format in all cases: biochemical, Lithobates sylvaticus
[1] = system: T1, Free AMPD (wood frog skeletal muscle, control frogs); experiment: AMP deaminase activity, […] nm absorbance, Hill fit; details: after Sephadex G-50 desalting, Hill coefficient 2.37, pH 7.2, 25°C, read-out: After spun columns
T1 construct: gene AMPD1; native, soluble (free) form in skeletal muscle extract of 5°C-acclimated control frogs, Sephadex G-50 desalted, not purified

[2] = system: T2, Bound AMPD (wood frog skeletal muscle, frozen frogs); experiment: AMP deaminase activity, glutamate dehydrogenase-coupled, NADH […] nm, Hill fit; details: Hill coefficient 1.12, pH 7.2, 25°C, no glucose, bound enzyme, read-out: S0.5 AMP
T2 construct: gene AMPD1; high phosphate form (sites not known); not purified

[3] = system: T3, Bound AMPD (wood frog skeletal muscle, control frogs); experiment: as above; details: Hill coefficient 1.03, pH 7.2, 25°C, no glucose, bound enzyme, read-out: S0.5 AMP
T3 construct: gene AMPD1; low phosphate form; not purified

[4] = target: T3, Bound AMPD (wood frog skeletal muscle, control frogs); experiment: AMP deaminase activity, glutamate dehydrogenase-coupled, NADH […] nm; details: activation constant (half-maximal activation, 1.25-fold), as Mg·ADP, 0.5 mM AMP, pH 7.2, 25°C, bound enzyme, allosteric
[5] = target: T1, Free AMPD (wood frog skeletal muscle, control frogs); experiment: AMP deaminase activity, […] nm absorbance; details: 0.5 mM AMP, pH 7.2, 25°C, allosteric
[6] = target: T2, Bound AMPD (wood frog skeletal muscle, frozen frogs); experiment: AMP deaminase activity, glutamate dehydrogenase-coupled, NADH […] nm; details: activation constant (half-maximal activation, 3.42-fold), as Mg·ADP, 0.5 mM AMP, pH 7.2, 25°C, bound enzyme, allosteric
[7] = target: T3, Bound AMPD (wood frog skeletal muscle, control frogs); experiment: as above; details: as Mg·GTP, 0.5 mM AMP, pH 7.2, 25°C, bound enzyme, allosteric
[8] = target: T1, Free AMPD (wood frog skeletal muscle, control frogs); experiment: AMP deaminase activity, […] nm absorbance; details: as Mg·GTP, 0.5 mM AMP, pH 7.2, 25°C, allosteric
[9] = target: T2, Bound AMPD (wood frog skeletal muscle, frozen frogs); experiment: AMP deaminase activity, glutamate dehydrogenase-coupled, NADH […] nm; details: as Mg·GTP, 0.5 mM AMP, pH 7.2, 25°C, bound enzyme, allosteric

SMILES: Nc1ncnc2c1ncn2[C@@H]1O[C@H](COP(=O)(O)O)[C@@H](O)[C@H]1O [AMP]
- Km [1]: 1350 ± 80 µM
- Km [2]: 1500 ± 190 µM
- Km [3]: 460 ± 30 µM

SMILES: Nc1ncnc2c1ncn2[C@@H]1O[C@H](COP(=O)(O)OP(=O)(O)O)[C@@H](O)[C@H]1O [Mg·ADP]
- EC50 [4]: 3750 ± 370 µM
- EC50 ([5]; activation constant (half-maximal activation, 2.17-fold), as Mg·ADP): 1120 ± 150 µM
- EC50 [6]: 1140 ± 100 µM

SMILES: Nc1ncnc2c1ncn2[C@@H]1O[C@H](COP(=O)(O)OP(=O)(O)OP(=O)(O)O)[C@@H](O)[C@H]1O [Mg·ATP]
- EC50 ([5]; activation constant (half-maximal activation, 1.53-fold), as Mg·ATP): 1900 ± 30 µM

SMILES: Nc1nc2c(ncn2[C@@H]2O[C@H](COP(=O)(O)OP(=O)(O)OP(=O)(O)O)[C@@H](O)[C@H]2O)c(=O)[nH]1 [Mg·GTP]
- IC50 [7]: 80 ± 10 µM
- IC50 [8]: 150 ± 20 µM
- IC50 [9]: 100 ± 10 µM
